Tested on: GFP-14-3-3β
Test: GFP-14-3-3β co-IP with LC-MS/MS, untreated GFP-14-3-3β versus GFP control (14-3-3 interactome)
Type: binding, human
Details: log2 difference; pairwise comparison untreated vs GFP, label-free quantification, 3 replicates each

PP1c: recombinant catalytic subunit of PP1
Difference (log2), untreated vs GFP: 1.715

From paper PMC7367873, “Dissecting the sequence determinants for dephosphorylation by the catalytic subunits of phosphatases PP1 and PP2A” (Nature Communications, 2020)
